Values after ≈ are worked out from the molar mass of the structure shown.
Legend:
Staphylococcus aureus = assay: Antimicrobial activity against Staphylococcus aureus assessed as inhibition of growth incubated for 18 hrs by CLSI guidelines based assay; format: functional
Escherichia coli = assay: Antimicrobial activity against Escherichia coli assessed as inhibition of growth incubated for 18 hrs by CLSI guidelines based assay; format: functional
[1] = Hemolytic activity in sheep red blood cells measured after 1 hr incubation; format: toxicity, cell-based, Ovis aries, Erythrocyte
[2] = Selectivity index, ratio of HC50 for sheep red blood cells to MIC for Staphylococcus aureus; format: toxicity, cell-based, RBC; settings: read-out: Selectivity Index
[3] = system: Stenotrophomonas maltophilia; assay: Antimicrobial activity against Stenotrophomonas maltophilia assessed as inhibition of growth incubated for 18 hrs by CLSI guidelines based assay; format: functional
Enterococcus faecalis = assay: Antimicrobial activity against Enterococcus faecalis assessed as inhibition of growth incubated for 18 hrs by CLSI guidelines based assay; format: functional
[4] = Cytotoxicity against human Gastric mucosal cells measured after 24 hrs by CCK-8 assay; format: toxicity, cell-based, Gastric mucosal cell

Row | Structure (SMILES) | MIC (Staphylococcus aureus) [µg/mL] | MIC (Escherichia coli) [µg/mL] | HC50 at 1 h [1] [µg/mL] | selectivity ratio [2] | MIC [3] [µg/mL] | MIC (Enterococcus faecalis) [µg/mL] | CC50 at 24 h [4] [µg/mL]
1 | C[N+](C)(CCCOc1cc(OCCC[N+](C)(C)CCCc2ccccc2)cc(OCCC[N+](C)(C)CCCc2ccccc2)c1)CCCc1ccccc1.[Br-].[Br-].[Br-] | 32 | > 128 | > 1280 | > 40 | > 128 | 32 | 
2 | C[N+](C)(CCCCOc1cc(OCCCC[N+](C)(C)CCCc2ccccc2)cc(OCCCC[N+](C)(C)CCCc2ccccc2)c1)CCCc1ccccc1.[Br-].[Br-].[Br-] | 8 | > 128 | > 1280 | > 160 | > 128 | 16 | 
3 | CCCC[N+](C)(C)CCCCOc1cc(OCCCC[N+](C)(C)CCCC)cc(OCCCC[N+](C)(C)CCCC)c1.[Br-].[Br-].[Br-] | 128 | 128 | > 1280 | > 10 | 128 | 128 | 
4 | CCCCCCCCCCCC[N+](C)(C)CCOc1ccccc1 [DOMIPHEN] |  |  |  |  |  |  | 74.5
5 | C[N+](C)(CCCCCOc1ccccc1)CCCCOc1cc(OCCCC[N+](C)(C)CCCCCOc2ccccc2)cc(OCCCC[N+](C)(C)CCCCCOc2ccccc2)c1.[Br-].[Br-].[Br-] | 1 | 16 | > 1280 | > 1280 | 16 | 2 | 
6 | C[C@@H](O)[C@H]1C(=O)N2C(C(=O)O)=C(S[C@@H]3CN[C@H](C(=O)N(C)C)C3)[C@H](C)[C@H]12 [MEROPENEM] | 0.5 (≈ 1.3 µM) | 1 (≈ 2.61 µM) | 1220 | 2440 | 1 (≈ 2.61 µM) | 2 (≈ 5.22 µM) | 
7 | CS(=O)(=O)c1ccc([C@@H](O)[C@@H](CF)NC(=O)C(Cl)Cl)cc1 [FLORFENICOL] |  |  |  |  |  |  | 121 (≈ 339 µM)
8 | C[N+](C)(CCCCOc1ccccc1)CCCOc1cc(OCCC[N+](C)(C)CCCCOc2ccccc2)cc(OCCC[N+](C)(C)CCCCOc2ccccc2)c1.[Br-].[Br-].[Br-] | 32 | 128 | > 1280 | > 40 | 128 | 64 | 
9 | CCCCCCCCCCCC[N+](C)(C)CCCCCOc1cc(OCCCCC[N+](C)(C)CCCCCCCCCCCC)cc(OCCCCC[N+](C)(C)CCCCCCCCCCCC)c1.[Br-].[Br-].[Br-] | 16 | 64 | 12 | 0.75 | 64 | 2 | 
10 | CCCCCCCC[N+](C)(C)CCCCOc1cccc(OCCCC[N+](C)(C)CCCCCCCC)c1OCCCC[N+](C)(C)CCCCCCCC.[Br-].[Br-].[Br-] | 1 | 2 | 847 | 847 | 1 | 1 | 
11 | CCCCCCCCCC[N+](C)(C)CCCOc1cc(OCCC[N+](C)(C)CCCCCCCCCC)cc(OCCC[N+](C)(C)CCCCCCCCCC)c1.[Br-].[Br-].[Br-] | 1 | 4 | 54 | 54 | 4 | 1 | 
12 | CCCC[N+](C)(C)CCCCCOc1cc(OCCCCC[N+](C)(C)CCCC)cc(OCCCCC[N+](C)(C)CCCC)c1.[Br-].[Br-].[Br-] | 64 | 32 | > 1280 | > 20 | 128 | 128 | 
13 | CCCCCCCCCCCC[N+](C)(C)CCCOc1cc(OCCC[N+](C)(C)CCCCCCCCCCCC)cc(OCCC[N+](C)(C)CCCCCCCCCCCC)c1.[Br-].[Br-].[Br-] | 8 | 32 | 10 | 1.25 | 32 | 4 | 
14 | C[N+](C)(CCCCOc1cc(OCCCC[N+](C)(C)CCCOc2ccccc2)cc(OCCCC[N+](C)(C)CCCOc2ccccc2)c1)CCCOc1ccccc1.[Br-].[Br-].[Br-] | 4 | > 128 | > 1280 | > 320 | 64 | 2 | 
15 | CCCCCCCCCCCC[N+](C)(C)CCCCOc1cc(OCCCC[N+](C)(C)CCCCCCCCCCCC)cc(OCCCC[N+](C)(C)CCCCCCCCCCCC)c1.[Br-].[Br-].[Br-] | 8 | 8 | 11 | 1.38 | 32 | 4 | 
16 | C[N+](C)(CCCCOc1ccccc1)CCCCOc1cc(OCCCC[N+](C)(C)CCCCOc2ccccc2)cc(OCCCC[N+](C)(C)CCCCOc2ccccc2)c1.[Br-].[Br-].[Br-] | 2 | 64 | > 1280 | > 640 | 32 | 4 | 
17 | C=C[C@]1(C)C[C@@H](OC(=O)CSC(C)(C)CNC(=O)[C@H](N)C(C)C)[C@]2(C)[C@H](C)CC[C@]3(CCC(=O)[C@H]32)[C@@H](C)[C@@H]1O [VALNEMULIN] |  |  |  |  |  |  | 45.7 (≈ 80.9 µM)
18 | C[N+](C)(CCCCc1ccccc1)CCCOc1cc(OCCC[N+](C)(C)CCCCc2ccccc2)cc(OCCC[N+](C)(C)CCCCc2ccccc2)c1.[Br-].[Br-].[Br-] | 8 | 128 | > 1280 | > 160 | 128 | 16 | 
19 | C[N+](C)(CCCCCOc1ccccc1)CCCOc1cc(OCCC[N+](C)(C)CCCCCOc2ccccc2)cc(OCCC[N+](C)(C)CCCCCOc2ccccc2)c1.[Br-].[Br-].[Br-] | 4 | 32 | > 1280 | > 320 | 32 | 8 | 
20 | C[N+](C)(CCCCOc1cc(OCCCC[N+](C)(C)CCCCc2ccccc2)cc(OCCCC[N+](C)(C)CCCCc2ccccc2)c1)CCCCc1ccccc1.[Br-].[Br-].[Br-] | 2 | 64 | > 1280 | > 640 | 32 | 4 | 
21 | C[N+](C)(CCCOc1ccccc1)CCCOc1cc(OCCC[N+](C)(C)CCCOc2ccccc2)cc(OCCC[N+](C)(C)CCCOc2ccccc2)c1.[Br-].[Br-].[Br-] | 32 | > 128 | > 1280 | > 40 | > 128 | 64 | 
22 | C[N+](C)(CCCCCOc1cc(OCCCCC[N+](C)(C)CCCc2ccccc2)cc(OCCCCC[N+](C)(C)CCCc2ccccc2)c1)CCCc1ccccc1.[Br-].[Br-].[Br-] | 1 | 8 | > 1280 | > 1280 | 16 | 1 | 
23 | CCCCCCCCCC[N+](C)(C)CCCCCOc1cc(OCCCCC[N+](C)(C)CCCCCCCCCC)cc(OCCCCC[N+](C)(C)CCCCCCCCCC)c1.[Br-].[Br-].[Br-] | 4 | 4 | 16 | 4 | 4 | 2 | 
24 | CCCCCC[N+](C)(C)CCCCOc1cc(OCCCC[N+](C)(C)CCCCCC)cc(OCCCC[N+](C)(C)CCCCCC)c1.[Br-].[Br-].[Br-] | 32 | 128 | > 1280 | > 40 | 128 | 8 | 
25 | CCCCCCCCCC[N+](C)(C)CCCCOc1cc(OCCCC[N+](C)(C)CCCCCCCCCC)cc(OCCCC[N+](C)(C)CCCCCCCCCC)c1.[Br-].[Br-].[Br-] | 4 | 4 | 34 | 8.5 | 4 | 0.5 | 
26 | CCCCCCCC[N+](C)(C)CCCCOc1ccc(OCCCC[N+](C)(C)CCCCCCCC)c(OCCCC[N+](C)(C)CCCCCCCC)c1.[Br-].[Br-].[Br-] | 0.5 | 2 | > 1280 | > 2560 | 1 | 0.5 | 
